{"source": "patent US20210156844A1", "about": "“TMEM16A Modulation for Diagnostic or Therapeutic Use in Pulmonary Hypertension (PH)” (Bayer Aktiengesellschaft, priority 2017, published 2021)", "key": {"hypoxia-exposed mice": {"test_system": "hypoxia-exposed mice", "experiment": "Acute hemodynamic effects of benzbromarone in hypoxia-exposed mice", "assay_type": "in vivo, mouse", "conditions": "single i.v. bolus of 300 μM", "excerpt": "The experimental protocol is depicted in FIG. 12A. Male C57BL/6J mice (Charles River) at the age of 10 weeks were either placed into a hypoxic chamber (FiO2=0.1, n=16) for 4 weeks, or kept at normoxic conditions (control group, FiO2=0.21, n=8). According to the reports of Fagan et al. (Fagan, K A, et al. Am. J. Physiol. Lung Cell. Mol. Physiol. (2004) 287, L656-664) and Tuscherer et al. (Tuchscherer, H A, et al., J. Biomech. (2007) 40, 993-1001), a significant increase in the right ventricular systolic pressure (RVSP) and PA muscularization can be observed already after 14 days of hypoxia exposure. Therefore, mice subjected to hypoxia were randomized into two groups at the end of the second week. […]\nIn mice, in vivo hemodynamics was performed under constant inhalation of 2% isoflurane/oxygen, using the closed chest technique through a small incision on the submandibular area. Body temperature was monitored and maintained at 37±1° C. A limb-lead ECG was recorded and the heart rate was kept constant to avoid changes in the sympathetic tone during the experiment. The right ventricle (RV) was catheterized via the right jugular vein using a 1.4 F Millar catheter (SPR-671, Millar, Houston Tex., USA) and right ventricular systolic pressure (RVSP) was measured continuously. […]"}, "[1]": {"experiment": "Solubility (comparative remark)", "assay_type": "physicochemical"}, "[2]": {"test_system": "monocrotaline (MCT)-treated rats", "experiment": "Acute hemodynamic effects of benzbromarone in monocrotaline (MCT)-treated rats", "assay_type": "in vivo, rat", "conditions": "single i.v. bolus of 300 μM", "experimental": "Male Sprague-Dawley rats (body weight: approx. 250 g, Charles River) received a single subcutaneous injection of monocrotaline (MCT, 60 mg/kg, n=16) or vehicle (control group, n=8). Since significant RVSP increase and PA muscularization had been detected as early as 12 days after the injection of MCT58, two weeks after monocrotaline treatment rats were randomly ordered into two groups. Subcutaneous slow-release pellets (Innovative Research of America) that contained either benzbromarone (MCT+BBR, n=8) or vehicle (MCT+Veh, n=8) were implanted. Four weeks after monocrotaline treatment all rats were subjected to echocardiography and in vivo hemodynamic measurements, thereafter they were sacrificed for organ collection. In rats, in vivo hemodynamic measurements were conducted as described above for the mice, with the exception that for the right ventricular and the systolic blood pressures, 2 F Millar Catheters (SPR-513 and SPR-320, respectively) were used. The above described control and MCT+Veh groups were included in this study. Benzbromarone was injected into the left jugular vein as a single bolus ([…], i.v. in 100 μl saline) and pressures were monitored until a maximum effect was observed (approx. 10 minutes)."}, "human PASMC": {"test_system": "human PASMC", "experiment": "PASMC proliferation in vitro, [3H]-thymidine incorporation", "assay_type": "cell-based", "conditions": "benzbromarone 30 μM; PDGF-BB 10 ng/ml; human donor PASMC", "experimental": "Human PASMC were seeded on 96-well plates. Cells were serum-starved for 12 hours, then underwent a 30 min pre-treatment with benzbromarone (30 μM) or vehicle. After the pre-treatment, serum-free SMC Medium containing PDGF-BB (10 ng/ml, Sigma) and benzbromarone was applied. The proliferation was determined by [^3H]-thymidine incorporation (BIOTREND Chemikalien GmbH, Cologne, Germany) as an index of DNA synthesis, and detected with a scintillation counter (Wallac 1450 MicroBeta TriLux Liquid Scintillation Counter & Luminometer, PerkinElmer, Waltham Mass., USA). Each independent experiment was performed in five replicates using PASMC isolated from six different donor lungs.\nIn experiments using TMEM16A silencing, cells were first seeded on 6-well plates and transfected with TMEM16A siRNA or control non-silencing RNA as described above. Cells were re-seeded into 96-well plates 24 hours after transfection, starved for 12 hours, then the induction and measurement of proliferation was performed as detailed above."}, "[3]": {"test_system": "patients with severe IPAH", "experiment": "Hemodynamic effect of a single oral dose of benzbromarone in IPAH patients", "assay_type": "in vivo, human", "conditions": "200 mg orally", "experimental": "All patients provided a written informed consent to participate in the study. Examinations were performed by the same experienced team. For the right heart catheterizations, a 7F quadriple-lumen, balloon-tipped, flow-directed Swan-Ganz catheter (Baxter, Deerfield, Ill.) was introduced using the transjugular approach. Hemodynamic measurements included systolic, diastolic and mean pulmonary arterial pressure, pulmonary arterial wedge pressure, right atrial pressure, and cardiac output measured by the thermodilution technique and calculated using an analog computer system. Pulmonary vascular resistance was derived from the difference of mean pulmonary arterial pressure and pulmonary arterial wedge pressure divided by cardiac output. Cardiac index was determined as the ratio of cardiac output to body surface area. All measurements were performed in the supine position, pressure values were continuously recorded and averaged over several respiratory cycles during spontaneous breathing. […] Partial pressure of oxygen and oxygen saturation of arterialized ear lobe capillary blood and pulmonary arterial blood were determined with an ABL 800 Flex (Radiometer; Copenhagen, Denmark) blood gas analyzer. Systemic blood pressure was measured by a sphygmomanometer."}, "[4]": {"conditions": "after 120 min, 10 patients, no placebo group"}}, "data": [{"smiles": "CCc1oc2ccccc2c1C(=O)c1cc(Br)c(O)c(Br)c1", "note": "[benzbromarone, (2-Ethyl-3-benzofuranyl)-(3,5-dibrom-4-hydroxyphenyl)ketone]", "values": [{"measurement": "RVSP", "setting": "hypoxia-exposed mice; mice exposed to 4 weeks of hypoxia", "value": "significant decrease"}, {"measurement": "RVSP in the control animals", "setting": "hypoxia-exposed mice; normoxia control mice", "value": "without affecting"}, {"measurement": "solubility compared with T16Ainh-A01", "setting": "[1]", "value": "better soluble"}, {"measurement": "RVSP", "setting": "[2]; MCT-treated rats", "value": "significant decrease"}, {"measurement": "RVSP in the control animals", "setting": "[2]; vehicle-treated control rats", "value": "without affecting"}, {"measurement": "PDGF-BB induced PASMC proliferation", "setting": "human PASMC", "value": "decrease"}, {"measurement": "further changes in the pulmonary or systemic hemodynamics", "setting": "[3]", "value": "no further changes"}, {"measurement": "PVR", "setting": "[3]; [4]", "value": "slight increase"}, {"measurement": "mPAP", "setting": "[3]; [4]", "value": "slight increase"}, {"measurement": "clinical adverse effects", "setting": "[3]; throughout the study", "value": "No clinical adverse effects"}]}]}
